Test results from the NIST ThermoML archive (doi:10.1016/j.jct.2015.07.006).
“And” between values parts separate entries of the source, which are not always exact repeats. Equal entries are not always repeated. Numbers after ± are expanded uncertainties.

Experiment: mn = molality of the nth substance listed, in mol/kg
Settings: 298.15 K, 100 kPa, Liquid, Vibrating tube method

For [O]=[Tc](=[O])(=[O])[OH] [pertechnetic acid] + O, the mass density (m1 = 0.000983) was 996.83 ± 2 kg/m3, the mass density (m1 = 0.00102) was 996.91 ± 2 kg/m3 and the mass density (m1 = 0.00113) was 996.91 ± 2 kg/m3 and 996.92 ± 2 kg/m3. The mass density (m1 = 0.00124) was 996.91 ± 2 kg/m3, the mass density (m1 = 0.00159) was 996.95 ± 2 kg/m3 and the mass density (m1 = 0.1) was 1008.7 ± 2 kg/m3. It also gave a mass density (m1 = 0.103) of 1008.77 ± 2 kg/m3, a mass density (m1 = 0.114) of 1009.95 ± 2 kg/m3 and a mass density (m1 = 0.115) of 1010.3 ± 2 kg/m3. The mass density (m1 = 0.127) was 1011.76 ± 2 kg/m3, the mass density (m1 = 0.163) was 1016.23 ± 2 kg/m3 and the mass density (m1 = 0.888) was 1097.53 ± 2.2 kg/m3. The mass density (m1 = 0.98) was 1107.47 ± 2.2 kg/m3, the mass density (m1 = 1.007) was 1117.47 ± 2.3 kg/m3 and the mass density (m1 = 1.096) was 1127.7 ± 2.3 kg/m3. For the same compound, the mass density (m1 = 1.182) was 1137.34 ± 2.3 kg/m3, the mass density (m1 = 1.265) was 1146.5 ± 2.3 kg/m3 and the mass density (m1 = 1.347) was 1155.88 ± 2.3 kg/m3. The mass density (m1 = 1.398) was 1164.11 ± 2.4 kg/m3, the mass density (m1 = 1.535) was 1178.55 ± 2.4 kg/m3 and the mass density (m1 = 1.696) was 1195.28 ± 2.4 kg/m3. The mass density (m1 = 2.034) was 1225.06 ± 2.5 kg/m3, the mass density (m1 = 2.106) was 1235.3 ± 2.5 kg/m3 and the mass density (m1 = 2.211) was 1243.09 ± 2.5 kg/m3. It also gave a mass density (m1 = 2.45) of 1263.95 ± 2.6 kg/m3, a mass density (m1 = 2.555) of 1272.74 ± 2.6 kg/m3 and a mass density (m1 = 2.667) of 1283.23 ± 2.6 kg/m3. It also gave a mass density (m1 = 2.783) of 1293.03 ± 2.6 kg/m3, a mass density (m1 = 2.908) of 1303.34 ± 2.7 kg/m3 and a mass density (m1 = 3.042) of 1314.68 ± 2.7 kg/m3. It also gave a mass density (m1 = 3.33) of 1335.81 ± 2.7 kg/m3, a mass density (m1 = 3.49) of 1348.06 ± 2.8 kg/m3 and a mass density (m1 = 3.693) of 1374.94 ± 2.8 kg/m3. It also gave a mass density (m1 = 3.884) of 1389.83 ± 2.9 kg/m3, a mass density (m1 = 4.038) of 1399.11 ± 2.9 kg/m3 and a mass density (m1 = 4.46) of 1434.87 ± 2.9 kg/m3. The mass density (m1 = 4.661) was 1446.75 ± 3 kg/m3, the mass density (m1 = 4.851) was 1460.83 ± 3 kg/m3 and the mass density (m1 = 5.049) was 1475.34 ± 3 kg/m3. The mass density (m1 = 5.257) was 1490.81 ± 3.1 kg/m3, the mass density (m1 = 5.485) was 1507.23 ± 3.1 kg/m3 and the mass density (m1 = 5.722) was 1523.34 ± 3.1 kg/m3. The mass density (m1 = 6.254) was 1556.61 ± 3.2 kg/m3, the mass density (m1 = 6.537) was 1574.08 ± 3.3 kg/m3 and the mass density (m1 = 6.849) was 1593.38 ± 3.3 kg/m3. For the same compound, the mass density (m1 = 7.187) was 1612.75 ± 3.3 kg/m3, the mass density (m1 = 7.54) was 1634.13 ± 3.4 kg/m3 and the mass density (m1 = 7.918) was 1657.06 ± 3.4 kg/m3. It also gave a mass density (m1 = 8.323) of 1679.31 ± 3.5 kg/m3.
